Like-named read-outs stand apart in the source and are kept apart here.
Molecular target: T1, recombinant human baculovirus-expressed GST-tagged FASN (Homo sapiens, UniProt P49327)
T1 construct: GST
Experiment: biochemical

[1] = 5 nM FASN, 150 μM NADPH, 10 μM acetyl-CoA, 25 μM malonyl-CoA, 90 minutes incubation, read-out: IC50 data for Compounds of Formula I, Activity

T1 sequence (P49327 whole entry): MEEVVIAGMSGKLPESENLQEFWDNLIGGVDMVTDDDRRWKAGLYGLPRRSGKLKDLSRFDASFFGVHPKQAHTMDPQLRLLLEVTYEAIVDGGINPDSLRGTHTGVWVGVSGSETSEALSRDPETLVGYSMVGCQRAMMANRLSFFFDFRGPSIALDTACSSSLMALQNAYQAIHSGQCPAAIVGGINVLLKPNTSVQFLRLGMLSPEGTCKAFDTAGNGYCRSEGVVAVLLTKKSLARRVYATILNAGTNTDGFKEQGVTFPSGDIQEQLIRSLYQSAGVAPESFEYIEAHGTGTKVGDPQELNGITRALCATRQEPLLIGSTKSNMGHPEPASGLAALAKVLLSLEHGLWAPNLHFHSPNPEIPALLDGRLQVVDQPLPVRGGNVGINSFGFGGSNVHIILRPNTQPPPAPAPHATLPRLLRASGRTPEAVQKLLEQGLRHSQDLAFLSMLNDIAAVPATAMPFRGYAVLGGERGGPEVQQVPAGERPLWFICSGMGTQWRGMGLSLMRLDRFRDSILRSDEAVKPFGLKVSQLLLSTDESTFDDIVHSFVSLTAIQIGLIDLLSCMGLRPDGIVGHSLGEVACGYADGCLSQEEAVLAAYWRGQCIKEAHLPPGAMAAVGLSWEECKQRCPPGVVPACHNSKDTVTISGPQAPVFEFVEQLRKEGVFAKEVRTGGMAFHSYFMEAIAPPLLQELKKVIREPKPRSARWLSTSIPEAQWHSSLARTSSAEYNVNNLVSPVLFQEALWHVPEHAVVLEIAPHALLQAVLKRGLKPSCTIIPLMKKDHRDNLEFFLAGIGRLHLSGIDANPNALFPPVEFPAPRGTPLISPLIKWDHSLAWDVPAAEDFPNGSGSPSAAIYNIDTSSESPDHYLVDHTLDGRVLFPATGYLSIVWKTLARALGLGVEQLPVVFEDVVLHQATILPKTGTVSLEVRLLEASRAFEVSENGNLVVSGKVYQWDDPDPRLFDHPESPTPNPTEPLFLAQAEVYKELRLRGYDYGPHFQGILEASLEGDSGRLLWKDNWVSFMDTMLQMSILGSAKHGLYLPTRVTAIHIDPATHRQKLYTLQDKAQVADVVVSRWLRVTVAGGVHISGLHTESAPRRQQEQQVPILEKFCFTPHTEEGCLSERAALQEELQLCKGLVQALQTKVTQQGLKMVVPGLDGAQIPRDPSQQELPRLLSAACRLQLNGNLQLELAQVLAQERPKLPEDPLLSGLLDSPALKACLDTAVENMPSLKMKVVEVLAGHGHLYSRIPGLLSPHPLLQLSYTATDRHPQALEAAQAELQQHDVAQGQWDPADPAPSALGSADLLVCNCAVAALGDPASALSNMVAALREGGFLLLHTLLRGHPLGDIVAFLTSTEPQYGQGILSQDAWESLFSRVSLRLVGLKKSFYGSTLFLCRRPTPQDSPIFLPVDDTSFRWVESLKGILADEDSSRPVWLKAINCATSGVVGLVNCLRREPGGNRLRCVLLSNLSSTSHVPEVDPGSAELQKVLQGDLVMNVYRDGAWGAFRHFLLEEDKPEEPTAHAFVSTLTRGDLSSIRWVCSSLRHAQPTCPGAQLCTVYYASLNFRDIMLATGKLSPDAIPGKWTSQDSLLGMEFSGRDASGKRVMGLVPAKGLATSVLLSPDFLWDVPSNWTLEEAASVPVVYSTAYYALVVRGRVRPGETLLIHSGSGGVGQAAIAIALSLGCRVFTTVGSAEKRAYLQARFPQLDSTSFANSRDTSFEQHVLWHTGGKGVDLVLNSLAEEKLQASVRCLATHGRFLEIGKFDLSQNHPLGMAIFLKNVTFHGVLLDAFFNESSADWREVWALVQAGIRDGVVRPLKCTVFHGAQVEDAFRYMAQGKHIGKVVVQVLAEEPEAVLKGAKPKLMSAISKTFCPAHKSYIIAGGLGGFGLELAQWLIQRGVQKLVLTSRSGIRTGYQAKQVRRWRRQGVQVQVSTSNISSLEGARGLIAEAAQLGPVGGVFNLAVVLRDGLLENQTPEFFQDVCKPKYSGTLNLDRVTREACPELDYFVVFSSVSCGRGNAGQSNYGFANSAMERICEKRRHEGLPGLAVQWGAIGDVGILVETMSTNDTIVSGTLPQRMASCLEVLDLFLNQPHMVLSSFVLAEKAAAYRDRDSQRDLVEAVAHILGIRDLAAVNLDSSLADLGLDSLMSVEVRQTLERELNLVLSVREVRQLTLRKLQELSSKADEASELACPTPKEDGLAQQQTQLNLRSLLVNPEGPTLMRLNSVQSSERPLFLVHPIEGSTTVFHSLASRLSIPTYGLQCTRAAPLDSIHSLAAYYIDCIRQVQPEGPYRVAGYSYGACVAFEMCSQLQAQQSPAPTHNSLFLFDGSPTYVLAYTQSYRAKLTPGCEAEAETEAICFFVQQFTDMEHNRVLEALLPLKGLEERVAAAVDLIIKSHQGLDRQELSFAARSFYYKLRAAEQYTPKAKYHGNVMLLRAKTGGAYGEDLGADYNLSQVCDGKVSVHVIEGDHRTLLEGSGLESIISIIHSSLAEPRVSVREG

Compound	IC50 [nM]	IC50 [1] [nM]
O=C(C1CC1)N1CCC2(CC1)OCc1cc(-c3cnc4ccccc4c3)ccc1O2 [Example 40, Cyclopropyl-[6-(3-quinolyl)spiro[4H-1,3-benzodioxine-2,4′-piperidine]-1′-yl]methanone]	1 to 99	–
O=C(C1CCC1)N1CCC2(CC1)OCc1cc(-c3cnc4ccccc4c3)ccc1O2 [Example 41, Cyclobutyl-[6-(3-quinolyl)spiro[4H-1,3-benzodioxine-2,4′-piperidine]-1′-yl]methanone]	1 to 99	–
CCC(=O)N1CCC2(CC1)CC(O)c1cc(-c3cnc4ccccc4c3)ccc1O2 (stereo not shown) [Example 42, 1-[4-Hydroxy-6-(3-quinolyl)spiro[chromane-2,4′-piperidine]-1′-yl]propan-1-one]	–	100 to 999
CCC(=O)N1CCC2(C=Cc3cc(-c4cnc5ccccc5c4)ccc3O2)CC1 [Example 43, 1-[6-(3-Quinolyl)spiro[chromene-2,4′-piperidine]-1′-yl]propan-1-one]	–	1 to 99
O=C(C1CC1)N1CCC2(C=Cc3cc(-c4cnc5ccccc5c4)ccc3O2)CC1 [Example 44, Cyclopropyl-[6-(3-quinolyl)spiro[chromene-2,4′-piperidine]-1′-yl]methanone]	–	1 to 99
O=C(C1CCC1)N1CCC2(C=Cc3cc(-c4cnc5ccccc5c4)ccc3O2)CC1 [Example 45, Cyclobutyl-[6-(3-quinolyl)spiro[chromene-2,4′-piperidine]-1′-yl]methanone]	–	1 to 99
O=C(C1CC1)N1CCC2(CC1)CC(O)c1cc(-c3cnc4ccccc4c3)ccc1O2 (stereo not shown) [Example 46, Cyclopropyl-[4-hydroxy-6-(3-quinolyl)spiro[chromane-2,4′-piperidine]-1′-yl]methanone]	–	100 to 999
CCC(=O)N1CCC2(CCc3cc(-c4cnc5ccccc5c4)ccc3O2)CC1 [Example 47, 1-[6-(3-Quinolyl)spiro[chromane-2,4′-piperidine]-1′-yl]propan-1-one]	–	1 to 99
O=C([C@H]1CCCO1)N1CCC2(CC1)OCc1cc(-c3cnc4ccccc4c3)ccc1O2 [Example 48, [6-(3-Quinolyl)spiro[4H-1,3-benzodioxine-2,4′-piperidine]-1′-yl]-[(2R)-tetrahydrofuran-2-yl]methanone]	1 to 99	–
COc1c(-c2ccc3c(c2)COC2(CCN(C(=O)C4CC4)CC2)O3)ccc2cccnc12 [Example 49, Cyclopropyl-[6-(8-methoxy-7-quinolyl)spiro[4H-1,3-benzodioxine-2,4′-piperidine]-1′-yl]methanone]	1 to 99	–
Cc1c(-c2ccc3c(c2)COC2(CCN(C(=O)[C@H]4CCCO4)CC2)O3)ccc2cccnc12 [Example 50, [6-(8-Methyl-7-quinolyl)spiro[4H-1,3-benzodioxine-2,4′-piperidine]-1′-yl]-[(2R)-tetrahydrofuran-2-yl]methanone]	1 to 99	–
Cc1c(-c2ccc3c(c2)COC2(CCN(C(=O)[C@H]4CCCO4)CC2)O3)cnc2ccccc12 [Example 51]	1 to 99	–
CCC(=O)N1CCC2(CC1)OCc1cc(-c3cnc4ccccc4c3C)ccc1O2 [Example 52, 1-[6-(4-Methyl-3-quinolyl)spiro[4H-1,3-benzodioxine-2,4′-piperidine]-1′-yl]propan-1-one]	1 to 99	–
CCC(=O)N1CCC2(CC1)OCc1cc(-c3ccc4cccnc4c3C)ccc1O2 [Example 53, 1-[6-(8-Methyl-7-quinolyl)spiro[4H-1,3-benzodioxine-2,4′-piperidine]-1′-yl]propan-1-one]	1 to 99	–
Cc1c(-c2ccc3c(c2)COC2(CCN(C(=O)C4CC4)CC2)O3)ccc2cccnc12 [Example 54, Cyclopropyl-[6-(8-methyl-7-quinolyl)spiro[4H-1,3-benzodioxine-2,4′-piperidine]-1′-yl]methanone]	1 to 99	–
CCC(=O)N1CCC2(CC1)OCc1cc(-c3ccc4cccnc4c3OC)ccc1O2 [Example 55, 1-[6-(8-Methoxy-7-quinolyl)spiro[4H-1,3-benzodioxine-2,4′-piperidine]-1′-yl]propan-1-one]	1 to 99	–
COc1c(-c2ccc3c(c2)COC2(CCN(C(=O)[C@H]4CCCO4)CC2)O3)ccc2cccnc12 [Example 56, [6-(8-Methoxy-7-quinolyl)spiro[4H-1,3-benzodioxine-2,4′-piperidine]-1′-yl]-[(2R)-tetrahydrofuran-2-yl]methanone]	1 to 99	–
CCC(=O)N1CCC2(CC1)OCc1cc(-c3ccc4cccnc4c3Cl)ccc1O2 [Example 57, 1-[6-(8-Chloro-7-quinolyl)spiro[4H-1,3-benzodioxine-2,4′-piperidine]-1′-yl]propan-1-one]	1 to 99	–
O=C(C1CC1)N1CCC2(CC1)OCc1cc(-c3ccc4cccnc4c3Cl)ccc1O2 [Example 58, [6-(8-Chloro-7-quinolyl)spiro[4H-1,3-benzodioxine-2,4′-piperidine]-1′-yl]-cyclopropyl-methanone]	1 to 99	–
O=C([C@H]1CCCO1)N1CCC2(CC1)OCc1cc(-c3ccc4cccnc4c3Cl)ccc1O2 [Example 59, [6-(8-Chloro-7-quinolyl)spiro[4H-1,3-benzodioxine-2,4′-piperidine]-1′-yl]-[(2R)-tetrahydrofuran-2-yl]methanone]	1 to 99	–

Compound	IC50 [nM]	IC50 [1] [nM]
CC(=O)OCC(=O)N1CCC2(CC1)OCc1cc(-c3ccc4cccnc4c3C)ccc1O2 [Example 60, [2-[6-(8-methyl-7-quinolyl)spiro[4H-1,3-benzodioxine-2,4′-piperidine]-1′-yl]-2-oxo-ethyl]acetate]	100 to 999	–
Cc1c(-c2ccc3c(c2)CCC2(CCN(C(=O)CO)CC2)O3)ccc2cccnc12 [Example 61, 2-Hydroxy-1-[6-(8-methyl-7-quinolyl)spiro[chromane-2,4′-piperidine]-1′-yl]-ethanone]	–	100 to 999
Cc1c(-c2ccc3c(c2)COC2(CCN(C(=O)CO)CC2)O3)ccc2cccnc12 [Example 62, 2-Hydroxy-1-[6-(8-methyl-7-quinolyl)spiro[4H-1,3-benzodioxine-2,4′-piperidine]-1′-yl]ethanone]	100 to 999	–
NC(=O)N1CCC2(CCc3cc(-c4ccc5cccnc5c4Cl)ccc3O2)CC1 [Example 63, 6-(8-Chloro-7-quinolyl)spiro[chromane-2,4′-piperidine]-1′-carboxamide]	–	1 to 99
CC(=O)OCC(=O)N1CCC2(CCc3cc(-c4ccc5cccnc5c4Cl)ccc3O2)CC1 [Example 64, [2-[6-(8-chloro-7-quinolyl)spiro[chromane-2,4′-piperidine]-1′-yl]-2-oxo-ethyl]acetate]	–	100 to 999
O=C(NOC1CCCCO1)N1CCC2(CCc3cc(-c4ccc5cccnc5c4Cl)ccc3O2)CC1 (stereo not shown) [Example 65, 6-(8-Chloro-7-quinolyl)-N-tetrahydropyran-2-yloxy-spiro[chromane-2,4′-piperidine]-1′-carboxamide]	–	1 to 99
CCNC(=O)N1CCC2(CCc3cc(-c4ccc5cccnc5c4Cl)ccc3O2)CC1 [Example 66, 6-(8-chloro-7-quinolyl)-N-ethyl-spiro[chromane-2,4′-piperidine]-1′-carboxamide]	–	1 to 99
O=C(CO)N1CCC2(CCc3cc(-c4ccc5cccnc5c4Cl)ccc3O2)CC1 [Example 67, 1-[6-(8-chloro-7-quinolyl)spiro[chromane-2,4′-piperidine]-1′-yl]-2-hydroxy-ethanone]	–	1000 to 10000
O=C(NO)N1CCC2(CCc3cc(-c4ccc5cccnc5c4Cl)ccc3O2)CC1 [Example 68, 6-(8-Chloro-7-quinolyl)spiro[chromane-2,4′-piperidine]-1′-carbohydroxamic acid]	–	100 to 999
CCONC(=O)N1CCC2(CCc3cc(-c4ccc5cccnc5c4Cl)ccc3O2)CC1 [Example 69, 6-(8-chloro-7-quinolyl)-N-ethoxy-spiro[chromane-2,4′-piperidine]-1′-carboxamide]	–	1 to 99
CONC(=O)N1CCC2(CCc3cc(-c4ccc5cccnc5c4Cl)ccc3O2)CC1 [Example 70, 6-(8-chloro-7-quinolyl)-N-methoxy-spiro[chromane-2,4′-piperidine]-1′-carboxamide]	–	1 to 99
CCOC(=O)N1CCC2(CCc3cc(-c4ccc5cccnc5c4Cl)ccc3O2)CC1 [Example 71, Ethyl 6-(8-chloro-7-quinolyl)spiro[chromane-2,4′-piperidine]-1′-carboxylate]	–	1000 to 10000
NC(=O)N1CCC2(CCc3cc(-c4cnc5ccccc5c4)ccc3O2)CC1 [Example 72, 6-(3-Quinolyl)spiro[chromane-2,4′-piperidine]-1′-carboxamide]	–	100 to 999
NC(=O)N1CCC2(CCc3cc(-c4ccc5occc5c4)ccc3O2)CC1 [Example 73, 6-(Benzofuran-5-yl)spiro[chromane-2,4′-piperidine]-1′-carboxamide]	–	1000 to 10000
NC(=O)N1CCC2(CCc3cc(-c4ccc5ncsc5c4)ccc3O2)CC1 [Example 74, 6-(1,3-benzothiazol-6-yl)spiro[chromane-2,4′-piperidine]-1′-carboxamide]	–	1000 to 10000
Cn1ccc2cc(-c3ccc4c(c3)CCC3(CCN(C(N)=O)CC3)O4)ccc21 [Example 75, 6-(1-Methylindol-5-yl)spiro[chromane-2,4′-piperidine]-1′-carboxamide]	–	100 to 999
NC(=O)N1CCC2(CCc3cc(-c4ccc5[nH]ccc5c4)ccc3O2)CC1 [Example 76, 6-(1H-Indol-5-yl)spiro[chromane-2,4′-piperidine]-1′-carboxamide]	–	100 to 999
Cc1c(-c2ccc3c(c2)CCOC2(CCN(C(N)=O)CC2)O3)ccc2cccnc12 [Example 77, 7-(8-methyl-7-quinolyl)spiro[4,5-dihydro-1,3-benzodioxepine-2,4′-piperidine]-1′-carboxamide]	100 to 999	–
CCNC(=O)N1CCC2(CC1)OCCc1cc(-c3ccc4cccnc4c3C)ccc1O2 [Example 78, N-Ethyl-7-(8-methyl-7-quinolyl)spiro[4,5-dihydro-1,3-benzodioxepine-2,4′-piperidine]-1′-carboxamide]	100 to 999	–
CCONC(=O)N1CCC2(CC1)OCCc1cc(-c3ccc4cccnc4c3C)ccc1O2 [Example 79, N-Ethoxy-7-(8-methyl-7-quinolyl)spiro[4,5-dihydro-1,3-benzodioxepine-2,4′-piperidine]-1′-carboxamide]	1 to 99	–

— patent publication US12448392B2, “Spiropiperidine derivatives” (89BIO LTD, priority 2016, dated 2025)
